Laboratory results reported in US9024027B2, “Derivatives of 1-phenyl-2-pyridinyl alkyl alcohols as phosphodiesterase inhibitors” (Chiesi Farmaceutici S.p.A., priority 2011, dated 2015).
Where a name gives a salt, the structure may show the parent alone.

These molecules were tested on LPS-induced TNF-α release in peripheral blood mononuclear cells (PBMCs) (assay: In vitro determination of PDE4 inhibitory activity in the PBMCs assay (LPS-induced TNF-α release)). Details: PBMC; human PBMCs, LPS 3 ng/ml, 18 hours; read-out: PDE4 inhibition (IC50, 50% inhibition of LPS-induced TNF-α release).
Assay type: cell-based
Procedure: The assay, which is based on the known inhibitory activity exerted by PDE4 inhibitors on the lipopolyshaccarides (LPS)-induced tumour necrosis factor-alpha (TNF-α release in peripheral blood mononuclear cells (PBMCs), was performed according to a method previously described (Hatzelmann A et al., J. Pharmacol. Exp. Ther., 2001; 297:267-279; and Draheim R et al., J. Pharmacol. Exp. Ther., 2004; 308:555-563, both of which are incorporated herein by reference in their entireties. Cryopreserved human PBMCs, (100 μl/well) were incubated in 96-well plates (10^5 cells/well), for 30 minutes, in the presence or absence (50 microl) of the test compounds whose concentrations ranged from 10^−12 M to 10^−6 M or from 10^−13 M to 10^−7 M. Subsequently, LPS (3 ng/ml) was added. After 18 hours of incubation at 37° C. in a humidified incubator under an atmosphere of 95% air and 5% CO2, culture medium was collected and TNF-α measured by ELISA.
The results of the tested compounds, representatives of the invention, expressed as mean±95% confidence limits of the molar concentration of the test compound producing 50% inhibition of LPS-induced TNF-α release (IC50) are shown in the following Table: […]
`O=C(CN1C(=O)C(=O)c2cc([N+](=O)[O-])ccc21)O[C@@H](Cc1c(Cl)c[n+]([O-])cc1Cl)c1ccc(OC(F)F)c(OCC2CC2)c1` [Compound 26] showed an IC50 of over 10 nM.
Molecule `COCC(=O)Nc1cccc2c1C(=O)N(CC(=O)O[C@@H](Cc1c(Cl)c[n+]([O-])cc1Cl)c1ccc(OC(F)F)c(OCC3CC3)c1)C2=O` [Compound 173, (S)-3,5-dichloro-4-(2-(3-(cyclopropylmethoxy)-4-(difluoromethoxy)phenyl)-2-(2-(4-(2-methoxyacetamido)-1,3-dioxoisoindolin-2-yl)acetoxy)ethyl)pyridine 1-oxide] has an IC50 of under 1 nM.
`O=C(CN1C(=O)c2ccccc2C1=O)O[C@H](Cc1c(Cl)c[n+]([O-])cc1Cl)c1ccc(OC(F)F)c(OCC2CC2)c1` [Compound 29] showed an IC50 of over 10 nM.
Work on `CC(=O)N1CCN(CCN(c2ccc3c(c2)C(=O)N(CC(=O)O[C@@H](Cc2c(Cl)c[n+]([O-])cc2Cl)c2ccc(OC(F)F)c(OCC4CC4)c2)C3=O)S(C)(=O)=O)CC1` [Compound 214] yielded an IC50 of under 1 nM.
Work on `COc1ccc2c(c1)N(CC(=O)O[C@@H](Cc1c(Cl)c[n+]([O-])cc1Cl)c1ccc(OC(F)F)c(OCC3CC3)c1)C(=O)C2=O` [Compound 64, (S)-3,5-dichloro-4-(2-(3-(cyclopropylmethoxy)-4-(difluoromethoxy)phenyl)-2-(2-(6-methoxy-2,3-dioxoindolin-1-yl)acetoxy)ethyl)-pyridine 1-oxide] yielded an IC50 of under 1 nM.
In the case of `CSCCC(C(=O)OC(Cc1c(Cl)c[n+]([O-])cc1Cl)c1ccc(OC(F)F)c(OCC2CC2)c1)N1C(=O)c2ccccc2C1=O` (stereo not shown) [Compound 15], the IC50 is reported as under 1 nM.
`COc1cc2c(cc1OC)CN(CC(=O)O[C@@H](Cc1c(Cl)c[n+]([O-])cc1Cl)c1ccc(OC(F)F)c(OCC3CC3)c1)CC2` [Compound 105, (S)-3,5-dichloro-4-(2-(3-(cyclopropylmethoxy)-4-(difluoromethoxy)phenyl)-2-(2-(6,7-dimethoxy-3,4-dihydroisoquinolin-2(1H)-yl)acetoxy)ethyl)pyridine 1-oxide] gave an IC50 of under 1 nM.
`CS(=O)(=O)N(CCN1CCOCC1)c1ccc2c(c1)C(=O)N(CC(=O)O[C@@H](Cc1c(Cl)c[n+]([O-])cc1Cl)c1ccc(OC(F)F)c(OCC3CC3)c1)C2=O` [Compound 182, (S)-3,5-dichloro-4-(2-(3-(cyclopropylmethoxy)-4-(difluoromethoxy)phenyl)-2-(2-(5-(N-(2-morpholinoethyl)methylsulfonamido)-1,3-dioxoisoindolin-2-yl)acetoxy)ethyl)pyridine 1-oxide 2,2,2 trifluoroacetic acid salt] showed an IC50 of under 1 nM.
`CC1(C)c2ccccc2S(=O)(=O)N1CC(=O)O[C@@H](Cc1c(Cl)c[n+]([O-])cc1Cl)c1ccc(OC(F)F)c(OCC2CC2)c1` [Compound 35, (S)-3,5-dichloro-4-(2-(3-(cyclopropylmethoxy)-4-(difluoromethoxy)phenyl)-2-(2-(3,3-dimethyl-1,1-dioxidobenzo[d]isothiazol-2(3H)-yl)acetoxy)ethyl)pyridine 1-oxide] gave an IC50 of 1 to 10 nM.
For `CS(=O)(=O)N(CCN1CCOCC1)c1cccc2c1C(=O)N(CC(=O)O[C@@H](Cc1c(Cl)c[n+]([O-])cc1Cl)c1ccc(OC(F)F)c(OCC3CC3)c1)C2=O` [Compound 176, (S)-3,5-dichloro-4-(2-(3-(cyclopropylmethoxy)-4-(difluoromethoxy)phenyl)-2-(2-(4-(N-(2-morpholinoethyl)methylsulfonamido)-1,3-dioxoisoindolin-2-yl)acetoxy)ethyl)pyridine 1-oxide 2,2,2-trifluoroacetic acid salt], the IC50 was 1 to 10 nM.
`O=C(CN1C(=O)C(=O)c2ccc(N3CCOCC3)cc21)O[C@@H](Cc1c(Cl)c[n+]([O-])cc1Cl)c1ccc(OC(F)F)c(OCC2CC2)c1` [Compound 142, (S)-3,5-dichloro-4-(2-(3-(cyclopropylmethoxy)-4-(difluoromethoxy)phenyl)-2-(2-(6-morpholino-2,3-dioxoindolin-1-yl)acetoxy)ethyl)pyridine 1-oxide] showed an IC50 of 1 to 10 nM.
Work on `O=C(CN1C(=O)c2cccc(NO)c2C1=O)O[C@@H](Cc1c(Cl)c[n+]([O-])cc1Cl)c1ccc(OC(F)F)c(OCC2CC2)c1` [Compound 170] yielded an IC50 of under 1 nM.
In the case of `CS(=O)(=O)N(Cc1ccccn1)c1ccc2c(c1)C(=O)N(CC(=O)O[C@@H](Cc1c(Cl)c[n+]([O-])cc1Cl)c1ccc(OC(F)F)c(OCC3CC3)c1)C2=O` [Compound 190], the IC50 is reported as under 1 nM.
`Cn1cnc2c1c(=O)n(CC(=O)O[C@@H](Cc1c(Cl)c[n+]([O-])cc1Cl)c1ccc(OC(F)F)c(OCC3CC3)c1)c(=O)n2C` [Compound 20] showed an IC50 of under 1 nM.
`CS(=O)(=O)N(CCN1CCOCC1)c1ccc2c(ccn2CC(=O)O[C@@H](Cc2c(Cl)c[n+]([O-])cc2Cl)c2ccc(OC(F)F)c(OCC3CC3)c2)c1` [Compound 230, (S)-3,5-dichloro-4-(2-(3-(cyclopropylmethoxy)-4-(difluoromethoxy)phenyl)-2-(2-(5-(N-(2-morpholinoethyl)methylsulfonamido)-1H-indol-1-yl)acetoxy)ethyl)pyridine 1-oxide hydrochloride] gave an IC50 of under 1 nM.
In the case of `CS(=O)(=O)Nc1cccc2c1ccn2CC(=O)O[C@@H](Cc1c(Cl)c[n+]([O-])cc1Cl)c1ccc(OC(F)F)c(OCC2CC2)c1` [Compound 84, (S)-3,5-dichloro-4-(2-(3-(cyclopropylmethoxy)-4-(difluoromethoxy)phenyl)-2-(2-(4-(methylsulfonamido)-1H-indol-1-yl)acetoxy)-ethyl)pyridine 1-oxide], the IC50 is reported as under 1 nM.
For `CS(=O)(=O)N(CCN1CCSCC1)c1ccc2c(c1)C(=O)N(CC(=O)O[C@@H](Cc1c(Cl)c[n+]([O-])cc1Cl)c1ccc(OC(F)F)c(OCC3CC3)c1)C2=O` [Compound 215], the IC50 was under 1 nM.
`CS(=O)(=O)N(CCN1CCOCC1)c1ccc2c(c1)C(=O)C(=O)N2CC(=O)O[C@@H](Cc1c(Cl)c[n+]([O-])cc1Cl)c1ccc(OC(F)F)c(OCC2CC2)c1` [Compound 240, (S)-3,5-dichloro-4-(2-(3-(cyclopropylmethoxy)-4-(difluoromethoxy)phenyl)-2-(2-(5-(N-(2-morpholinoethyl)methylsulfonamido)-2,3-dioxoindolin-1-yl)acetoxy)ethyl)pyridine 1-oxide] gave an IC50 of under 1 nM.
`CS(=O)(=O)Nc1cccc2c1C(=O)N(CC(=O)O[C@@H](Cc1c(Cl)c[n+]([O-])cc1Cl)c1ccc(OC(F)F)c(OCC3CC3)c1)C2=O` [Compound 162, (S)-3,5-dichloro-4-(2-(3-(cyclopropylmethoxy)-4-(difluoromethoxy)phenyl)-2-(2-(4-(methylsulfonamido)-1,3-dioxoisoindolin-2-yl)acetoxy)ethyl)pyridine 1-oxide] showed an IC50 of under 1 nM.
`O=C(CN1C(=O)C(=O)c2ccccc21)O[C@@H](Cc1c(Cl)c[n+]([O-])cc1Cl)c1ccc(OC(F)F)c(OCC2CC2)c1` [Compound 25] gave an IC50 of under 1 nM.
In the case of `O=C(Cn1c(=O)[nH]c2ccccc2c1=O)O[C@@H](Cc1c(Cl)c[n+]([O-])cc1Cl)c1ccc(OC(F)F)c(OCC2CC2)c1` [Compound 30], the IC50 is reported as under 1 nM.
`CS(=O)(=O)Nc1ccc2c(c1)C(=O)C(=O)N2CC(=O)O[C@@H](Cc1c(Cl)c[n+]([O-])cc1Cl)c1ccc(OC(F)F)c(OCC2CC2)c1` [Compound 99, (S)-3,5-dichloro-4-(2-(3-(cyclopropylmethoxy)-4-(difluoromethoxy)phenyl)-2-(2-(5-(methylsulfonamido)-2,3-dioxoindolin-1-yl)acetoxy)ethyl)pyridine 1-oxide] showed an IC50 of 1 to 10 nM.
